Values of other authors, collected in US11964949B2, “Substituted phenyloxazolidinones for antimicrobial therapy” (priority 2015, dated 2024).

Test system: Mycobacterium tuberculosis, including multidrug-resistant (MDR) and extensively drug resistant (XDR) strains
Details: M. tuberculosis incl. MDR and XDR strains; cited from earlier work

CC(=O)NC[C@H]1CN(c2ccc(N3CCOCC3)c(F)c2)C(=O)O1 [Linezolid]
minimum inhibitory concentration (MIC): less than 1 ag/ml
